# Data from patent publication US20020137929A1, “1 - (3-heterocyclylphenyl) isothiourea, -isourea, -guanidine and -amidine herbicidal agents” (Intellectual Property Department, BASF Aktiengesellschaft, priority 1998, published 2002).
# Tests used:
# [1] = test system: ECHORC (Watergrass (Calif.)); assay: Preemergence weed control under flooded paddy conditions; type: in vivo, Echinochloa oryzoides; conditions: rated 3-4 weeks after treatment
# Procedure, shortened: (§1)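 Seeds or propagules sown in top 0.5 cm of silt loam soil, flooded 1.5 to 3 cm above surface throughout. Compound in 50/50 v/v aqueous/acetone pipetted into flood water at about 0.0313 to 0.500 kg/ha. Visual 0-9 rating versus control after three to four weeks in greenhouse.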
# [2] = test system: IPOHE (Morningglory, Ivyleaf); assay: Preemergence herbicidal evaluation; type: in vivo, Ipomoea hederacea; conditions: rated 4-5 weeks after treatment
# Procedure, shortened: (§2)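 Greenhouse preemergence test: seed-soil mix sown on ~1 inch soil; aqueous acetone spray at equivalent of ~0.0156–0.500 kg/ha; greenhouse-held and watered; scored 0–9 visually at 4–5 weeks.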
# [3] = test system: CYPIR (Rice Flatsedge); assay: Preemergence weed control under flooded paddy conditions; type: in vivo, Cyperus iria; conditions: rated 3-4 weeks after treatment
# Procedure, shortened: as §1
# [4] = test system: SAGPY (Arrowhead (Pygmaea)); assay: Postemergence weed control under flooded paddy conditions; type: in vivo, Sagittaria pygmaea; conditions: postemergence weeds, 3-4 weeks after treatment
# Procedure, shortened: (§3)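 Containers holding 3–5 cm weeds and rice at 1.5–2.5 leaves are flooded to 1.5–3 cm above soil. Compound in 50/50 v/v aqueous/acetone is then added directly to the water, about 0.0313–0.500 kg/ha. Plants are kept in the greenhouse and rated 0–9 visually at 3–4 weeks.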
# [5] = test system: TRZAWR (Wheat, Winter, cv Riband); assay: Preemergence herbicidal evaluation; type: in vivo, Triticum aestivum; conditions: rated 4-5 weeks after treatment
# Procedure, shortened: as §2
# [6] = test system: CYPIR (Rice Flatsedge); assay: Postemergence weed control under flooded paddy conditions; type: in vivo, Cyperus iria; conditions: postemergence weeds, 3-4 weeks after treatment
# Procedure, shortened: as §3
# [7] = test system: SETVI (Foxtail, Green); assay: Postemergence herbicidal evaluation; type: in vivo, Setaria viridis; conditions: postemergence
# Procedure, shortened: (§4)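 Two-week-old seedlings sprayed with compound in 50/50 acetone/water plus 0.5% TWEEN 20, at about 0.0156 to 0.500 kg/ha, nozzle at 40 psi. Kept in greenhouse; rated visually 4-5 weeks after treatment on a 0-9 scale versus control, repeat tests averaged.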
# [8] = test system: ORYSAT (Rice, Tebonnet); assay: Postemergence herbicidal evaluation; type: in vivo, Oryza sativa, (L.) Tebonnet; conditions: postemergence
# Procedure, shortened: as §4
# [9] = test system: ABUTH (Velvetleaf); assay: Postemergence herbicidal evaluation; type: in vivo, Abutilon theophrasti; conditions: postemergence
# Procedure, shortened: as §4
# [10] = test system: ZEAMX (Corn, Field); assay: Preemergence herbicidal evaluation; type: in vivo, Zea mays; conditions: rated 4-5 weeks after treatment
# Procedure, shortened: as §2
# [11] = test system: CYPSE (Flatsedge); assay: Postemergence weed control under flooded paddy conditions; type: in vivo, Cyperus serotinus; conditions: postemergence weeds, 3-4 weeks after treatment
# Procedure, shortened: as §3
# [12] = test system: GALAP (Galium); assay: Postemergence herbicidal evaluation; type: in vivo, Galium aparine; conditions: postemergence
# Procedure, shortened: as §4
# [13] = test system: ECHCG (Barnyardgrass); assay: Postemergence herbicidal evaluation; type: in vivo, Echinochloa crus-galli; conditions: postemergence
# Procedure, shortened: as §4
# [14] = test system: MOOVA (Monochoria); assay: Preemergence weed control under flooded paddy conditions; type: in vivo, Monochoria vaginalis; conditions: rated 3-4 weeks after treatment
# Procedure, shortened: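 Herbicidal effect is scored visually on a 0-9 scale against an untreated control, three to four weeks after compounds are pipetted into the flood water (1.5 to 3 cm deep) over seeds planted in silt loam at 0.5 cm depth. Rates: about 0.0313 to 0.500 kg/ha.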
structure (smiles),measurement,setting,value
C=CCN1C(=O)CSC1=Nc1cc(-n2c(=O)cc(C(F)(F)F)n(C)c2=O)c(F)cc1Cl [Compound 27],Herbicidal rating ECHORC,[1]; 0.0313 kg/ha,6.0
same,Herbicidal rating ECHORC,[1]; 0.0625 kg/ha,7.0
same,Herbicidal rating ECHORC,[1]; 0.1250 kg/ha,9.0
same,Herbicidal rating ECHORC,[1]; 0.2500 kg/ha,9.0
same,Preemergence herbicidal rating IPOHE,[2]; rate 0.0156 kg/ha,0.0
same,Preemergence herbicidal rating IPOHE,[2]; rate 0.0313 kg/ha,0.0
same,Preemergence herbicidal rating IPOHE,[2]; rate 0.0625 kg/ha,8.0
same,Preemergence herbicidal rating IPOHE,[2]; rate 0.1250 kg/ha,9.0
same,Preemergence herbicidal rating IPOHE,[2]; rate 0.2500 kg/ha,9.0
same,Herbicidal rating CYPIR,[3]; 0.0313 kg/ha,3.0
same,Herbicidal rating CYPIR,[3]; 0.0625 kg/ha,4.0
same,Herbicidal rating CYPIR,[3]; 0.1250 kg/ha,6.0
same,Herbicidal rating CYPIR,[3]; 0.2500 kg/ha,9.0
same,Herbicidal rating SAGPY,[4]; rate 0.0313 kg/ha,0.0
same,Herbicidal rating SAGPY,[4]; rate 0.0625 kg/ha,0.0
same,Herbicidal rating SAGPY,[4]; rate 0.1250 kg/ha,4.0
same,Herbicidal rating SAGPY,[4]; rate 0.2500 kg/ha,4.0
same,Preemergence herbicidal rating TRZAWR,[5]; rate 0.0156 kg/ha,0.0
same,Preemergence herbicidal rating TRZAWR,[5]; rate 0.0625 kg/ha,3.0
same,Preemergence herbicidal rating TRZAWR,[5]; rate 0.1250 kg/ha,7.0
same,Preemergence herbicidal rating TRZAWR,[5]; rate 0.2500 kg/ha,9.0
same,Herbicidal rating CYPIR,[6]; rate 0.0313 kg/ha,3.0
same,Herbicidal rating CYPIR,[6]; rate 0.0625 kg/ha,4.0
same,Herbicidal rating CYPIR,[6]; rate 0.1250 kg/ha,6.0
same,Herbicidal rating CYPIR,[6]; rate 0.2500 kg/ha,9.0
same,SETVI herbicidal rating,[7]; rate 0.0158 kg/ha,2.0
same,SETVI herbicidal rating,[7]; rate 0.0315 kg/ha,4.0
same,SETVI herbicidal rating,[7]; rate 0.0630 kg/ha,9.0
same,ORYSAT herbicidal rating,[8]; rate 0.0158 kg/ha,2.0
same,ORYSAT herbicidal rating,[8]; rate 0.0315 kg/ha,2.5
same,ORYSAT herbicidal rating,[8]; rate 0.0630 kg/ha,4.5
same,ABUTH herbicidal rating,[9]; rate 0.0158 kg/ha,9.0
same,ABUTH herbicidal rating,[9]; rate 0.0315 kg/ha,9.0
same,ABUTH herbicidal rating,[9]; rate 0.0630 kg/ha,9.0
same,Preemergence herbicidal rating ZEAMX,[10]; rate 0.0156 kg/ha,0.0
same,Preemergence herbicidal rating ZEAMX,[10]; rate 0.0313 kg/ha,7.0
same,Preemergence herbicidal rating ZEAMX,[10]; rate 0.0625 kg/ha,8.0
same,Preemergence herbicidal rating ZEAMX,[10]; rate 0.1250 kg/ha,9.0
same,Preemergence herbicidal rating ZEAMX,[10]; rate 0.2500 kg/ha,9.0
same,Herbicidal rating CYPSE,[11]; rate 0.0313 kg/ha,0.0
same,Herbicidal rating CYPSE,[11]; rate 0.0625 kg/ha,0.0
same,Herbicidal rating CYPSE,[11]; rate 0.1250 kg/ha,0.0
same,Herbicidal rating CYPSE,[11]; rate 0.2500 kg/ha,9.0
same,GALAP herbicidal rating,[12]; rate 0.0158 kg/ha,1.0
same,GALAP herbicidal rating,[12]; rate 0.0315 kg/ha,4.0
same,GALAP herbicidal rating,[12]; rate 0.0630 kg/ha,4.0
same,ECHCG herbicidal rating,[13]; rate 0.0158 kg/ha,2.0
same,ECHCG herbicidal rating,[13]; rate 0.0315 kg/ha,2.0
same,ECHCG herbicidal rating,[13]; rate 0.0630 kg/ha,1.0
same,Herbicidal rating MOOVA,[14]; 0.0313 kg/ha,9.0
same,Herbicidal rating MOOVA,[14]; 0.0625 kg/ha,9.0
same,Herbicidal rating MOOVA,[14]; 0.1250 kg/ha,9.0
same,Herbicidal rating MOOVA,[14]; 0.2500 kg/ha,9.0
"COC(=O)CN1C(=O)CSC1=Nc1cc(-n2c(=O)cc(C(F)(F)F)n(C)c2=O)c(F)cc1Cl [Compound 17, Methyl 2-{{2-chloro-5-[3,6-dihydro-3-methyl-2,6-dioxo-4-(trifluoromethyl)-1(2H)-pyrimidinyl]-4-fluorophenyl}imino}-4-oxo-3-thiazolidineacetate]",Herbicidal rating ECHORC,[1]; 0.0313 kg/ha,4.0
same,Herbicidal rating ECHORC,[1]; 0.0625 kg/ha,9.0
same,Herbicidal rating ECHORC,[1]; 0.1250 kg/ha,9.0
same,Herbicidal rating ECHORC,[1]; 0.2500 kg/ha,9.0
same,IPOHE preemergence herbicidal rating,[2]; rate 0.0156 kg/ha,0.5
same,IPOHE preemergence herbicidal rating,[2]; rate 0.0313 kg/ha,0.7
same,IPOHE preemergence herbicidal rating,[2]; rate 0.0625 kg/ha,4.0
same,IPOHE preemergence herbicidal rating,[2]; rate 0.1250 kg/ha,5.7
same,IPOHE preemergence herbicidal rating,[2]; rate 0.2500 kg/ha,9.0
same,IPOHE preemergence herbicidal rating,[2]; rate 0.5000 kg/ha,9.0
same,Herbicidal rating CYPIR,[3]; 0.0313 kg/ha,0.0
same,Herbicidal rating CYPIR,[3]; 0.0625 kg/ha,0.0
same,Herbicidal rating CYPIR,[3]; 0.1250 kg/ha,6.0
same,Herbicidal rating CYPIR,[3]; 0.2500 kg/ha,9.0
same,Herbicidal rating SAGPY,[4]; rate 0.0313 kg/ha,0.0
same,Herbicidal rating SAGPY,[4]; rate 0.0625 kg/ha,0.0
same,Herbicidal rating SAGPY,[4]; rate 0.1250 kg/ha,4.0
same,Herbicidal rating SAGPY,[4]; rate 0.2500 kg/ha,4.0
same,TRZAWR preemergence herbicidal rating,[5]; rate 0.0156 kg/ha,0.0
same,TRZAWR preemergence herbicidal rating,[5]; rate 0.0313 kg/ha,0.0
same,TRZAWR preemergence herbicidal rating,[5]; rate 0.0625 kg/ha,0.0
same,TRZAWR preemergence herbicidal rating,[5]; rate 0.1250 kg/ha,2.0
same,TRZAWR preemergence herbicidal rating,[5]; rate 0.2500 kg/ha,7.0
same,TRZAWR preemergence herbicidal rating,[5]; rate 0.5000 kg/ha,7.0
same,Herbicidal rating CYPIR,[6]; rate 0.0313 kg/ha,0.0
same,Herbicidal rating CYPIR,[6]; rate 0.0625 kg/ha,0.0
same,Herbicidal rating CYPIR,[6]; rate 0.1250 kg/ha,6.0
same,Herbicidal rating CYPIR,[6]; rate 0.2500 kg/ha,9.0
same,SETVI herbicidal rating,[7]; rate 0.0156 kg/ha,2.0
same,SETVI herbicidal rating,[7]; rate 0.0313 kg/ha,2.5
same,SETVI herbicidal rating,[7]; rate 0.0625 kg/ha,4.0
same,SETVI herbicidal rating,[7]; rate 0.1250 kg/ha,5.5
same,ORYSAT herbicidal rating,[8]; rate 0.0156 kg/ha,1.8
same,ORYSAT herbicidal rating,[8]; rate 0.0313 kg/ha,3.0
same,ORYSAT herbicidal rating,[8]; rate 0.0625 kg/ha,3.5
same,ORYSAT herbicidal rating,[8]; rate 0.1250 kg/ha,5.0
same,ABUTH herbicidal rating,[9]; rate 0.0156 kg/ha,9.0
same,ABUTH herbicidal rating,[9]; rate 0.0313 kg/ha,9.0
same,ABUTH herbicidal rating,[9]; rate 0.0625 kg/ha,9.0
same,ABUTH herbicidal rating,[9]; rate 0.1250 kg/ha,9.0
same,ZEAMX preemergence herbicidal rating,[10]; rate 0.0156 kg/ha,0.0
same,ZEAMX preemergence herbicidal rating,[10]; rate 0.0313 kg/ha,0.3
same,ZEAMX preemergence herbicidal rating,[10]; rate 0.0625 kg/ha,1.0
same,ZEAMX preemergence herbicidal rating,[10]; rate 0.1250 kg/ha,1.0
same,ZEAMX preemergence herbicidal rating,[10]; rate 0.2500 kg/ha,3.3
same,ZEAMX preemergence herbicidal rating,[10]; rate 0.5000 kg/ha,5.5
same,Herbicidal rating CYPSE,[11]; rate 0.0313 kg/ha,9.0
same,Herbicidal rating CYPSE,[11]; rate 0.0625 kg/ha,9.0
same,Herbicidal rating CYPSE,[11]; rate 0.1250 kg/ha,9.0
same,Herbicidal rating CYPSE,[11]; rate 0.2500 kg/ha,9.0
same,GALAP herbicidal rating,[12]; rate 0.0156 kg/ha,1.5
same,GALAP herbicidal rating,[12]; rate 0.0313 kg/ha,3.5
same,GALAP herbicidal rating,[12]; rate 0.0625 kg/ha,5.5
same,GALAP herbicidal rating,[12]; rate 0.1250 kg/ha,6.0
same,ECHCG herbicidal rating,[13]; rate 0.0156 kg/ha,0.0
same,ECHCG herbicidal rating,[13]; rate 0.0313 kg/ha,0.0
same,ECHCG herbicidal rating,[13]; rate 0.0625 kg/ha,2.5
same,ECHCG herbicidal rating,[13]; rate 0.1250 kg/ha,8.0
same,Herbicidal rating MOOVA,[14]; 0.0313 kg/ha,9.0
same,Herbicidal rating MOOVA,[14]; 0.0625 kg/ha,9.0
same,Herbicidal rating MOOVA,[14]; 0.1250 kg/ha,9.0
same,Herbicidal rating MOOVA,[14]; 0.2500 kg/ha,9.0
